# Measurements from patent US8470828B2, “Anellated pyridine compounds” (Hoffmann-La Roche Inc., priority 2010, dated 2013).
# Key:
# [1] = target: human 5-HT2A receptor (Homo sapiens, UniProt P28223); assay: Radioligand binding to cloned human 5-HT2A receptor expressed in HEK-293 EBNA cells ([3H]-ketanserin)
# Description: (§1) HEK293 EBNA cells were transiently transfected with expression plasmids encoding for the human D2 or D3 or for the human 5-HT2A receptor, respectively. The cells were harvested 48 h post-transfection, washed three times with cold PBS and stored at −80° C. prior to use. The pellet was suspended in cold 50 mM Tris-HCl buffer comprising 10 mM EDTA (pH 7.4) and was homogenized with a Polytron (Kinematica A G, Basel, Switzerland) for 20-30 sec at 12.000 rpm. After centrifugation at 48.000×g for 30 min at 4° C., the pellet was resuspended in cold 10 mM Tris-HCl buffer comprising 0.1 mM EDTA (pH 7.4), homogenized, and centrifuged as above. This pellet was further resuspended in a smaller volume of ice cold 10 mM Tris-HCl buffer comprising 0.1 mM EDTA (pH 7.4) and homogenized with a Polytron for 20-30 sec at 12.000 rpm. The protein content of this homogenate was determined with the Bio-Rad (Bradford) Protein Assay (Biorad Laboratories GmbH, München, Germany) according to the instructions of the manufacturer using gamma globulin as the standard. This homogenate was stored at −80° C. in aliquots and thawed immediately prior to use.
# (§2) Aliquots of membrane preparations were thawed at RT, resupended in assay buffer (D2, D3: 50 mM Tris-HCl, 120 mM NaCl, 5 mM MgCl2, 1 mM EDTA, 5 mM KCl, 1.5 mM CaCl2, pH=7.4; 5-HT2A: 50 mM Tris-HCl, 10 mM MgCl2, 1 mM EGTA, pH=7.4), homogenized with a Polytron for 20-30 sec at 12.000 rpm and adjusted to a final concentration of approximately 7.5 μg protein/well (D2, D3) and 15 μg protein/well (5-HT2A), respectively.
# (§3) The binding affinity (Ki) of the compounds was determined using radioligand binding. Membranes were incubated in a total volume of 200 μl with a fixed concentration of radioligand (final concentration approximately 0.7 nM [^3H]-spiperone for D2, 0.5 nM [^3H]-spiperone for D3, and 1.1 nM [^3H]-ketanserin for 5-HT2A) and ten concentrations of test compound in ranging between 10 μM-0.1 nM for 1 h at RT. At the end of the incubation, the reaction mixtures were filtered on to unifilter 96-well white microplates with bonded GF/C filters (Packard BioScience, Zürich, Switzerland; preincubated for 1 h in 0.1% polyethylenimine (PEI) in assay buffer) with a Filtermate 196 harvester (Packard BioScience) and washed 3 times with cold assay buffer. The nonspecific binding was determined with equally composed reaction mixtures in the presence of 10 μM unlabelled spiperone. Per well 45 μl of Microscint 40 (Perkin Elmer, Schwerzenbach, Switzerland) was added, plates for sealed, shaken for 20 min and counted for 3 min on a Topcount Microplate Scintillation Counter (Can berra Packard S A, Zürich, Switzerland) with quenching correction.
# (§4) The CPM value for each duplicate of a concentration of competing compound was averaged (y1), then the % specific binding was calculated according to the equation (((y1−non-specific)/(total binding−non-specific))×100). Graphs were plotted with the % specific binding using XLfit, a curve fitting program that iteratively plots the data using Levenberg-Marquardt algorithm. The single site competition analysis equation used was y=A+((B−A)/(1+((x/C)D))), where y is the % specific binding, A is the minimum y, B is the maximum y, C is the IC50, x is the log 10 of the concentration of the competing compound and D is the slope of the curve (the Hill Coefficient). […] The affinity constant (Ki) was calculated using the Cheng-Prusoff equation Ki=(IC50/1+([L]/Kd), where [L] is the concentration of radioligand and Kd is the dissociation constant of the radioligand at the receptor as determined by the saturation isotherm.
# [2] = target: human D3 receptor (Homo sapiens, UniProt P35462); assay: Radioligand binding to cloned human D3 receptor expressed in HEK-293 EBNA cells ([3H]-spiperone)
# [3] = target: T1, human D2 receptor (Homo sapiens, UniProt P14416); assay: Radioligand binding to cloned human D2 receptor expressed in HEK-293 EBNA cells ([3H]-spiperone); conditions: HEK293 EBNA cell membranes, approximately 0.7 nM [3H]-spiperone, 1 h at RT
# T1 construct: expressed in transfected cells; host or cells: HEK293 EBNA cells, transient transfection; membrane preparation
# T1 sequence (P14416 whole entry): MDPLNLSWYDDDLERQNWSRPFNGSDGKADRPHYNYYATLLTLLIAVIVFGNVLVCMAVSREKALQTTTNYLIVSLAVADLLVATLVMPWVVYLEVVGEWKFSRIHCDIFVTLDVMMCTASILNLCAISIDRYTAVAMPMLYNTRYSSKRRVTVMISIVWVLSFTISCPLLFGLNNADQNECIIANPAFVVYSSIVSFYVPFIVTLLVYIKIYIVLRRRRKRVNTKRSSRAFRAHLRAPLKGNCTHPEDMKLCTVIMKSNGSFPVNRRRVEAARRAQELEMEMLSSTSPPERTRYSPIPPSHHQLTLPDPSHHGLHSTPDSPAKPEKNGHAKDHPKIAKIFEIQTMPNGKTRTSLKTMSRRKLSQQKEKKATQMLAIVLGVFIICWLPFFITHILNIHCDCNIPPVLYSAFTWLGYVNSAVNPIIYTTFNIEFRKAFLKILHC
# Description: as §1, §2, §3, §4
# Sequence of human D3 receptor (P35462 whole entry): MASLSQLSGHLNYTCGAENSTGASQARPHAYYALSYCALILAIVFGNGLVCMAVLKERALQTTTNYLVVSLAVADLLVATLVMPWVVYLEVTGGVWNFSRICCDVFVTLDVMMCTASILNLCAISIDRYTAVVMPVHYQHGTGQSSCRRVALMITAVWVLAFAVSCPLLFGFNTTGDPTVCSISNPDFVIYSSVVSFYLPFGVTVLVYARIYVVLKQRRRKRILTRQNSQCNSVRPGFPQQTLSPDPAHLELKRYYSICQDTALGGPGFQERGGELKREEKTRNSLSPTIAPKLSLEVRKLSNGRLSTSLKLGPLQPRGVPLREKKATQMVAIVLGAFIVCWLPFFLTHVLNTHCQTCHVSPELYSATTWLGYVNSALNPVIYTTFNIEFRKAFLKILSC
# Sequence of human 5-HT2A receptor (P28223 whole entry): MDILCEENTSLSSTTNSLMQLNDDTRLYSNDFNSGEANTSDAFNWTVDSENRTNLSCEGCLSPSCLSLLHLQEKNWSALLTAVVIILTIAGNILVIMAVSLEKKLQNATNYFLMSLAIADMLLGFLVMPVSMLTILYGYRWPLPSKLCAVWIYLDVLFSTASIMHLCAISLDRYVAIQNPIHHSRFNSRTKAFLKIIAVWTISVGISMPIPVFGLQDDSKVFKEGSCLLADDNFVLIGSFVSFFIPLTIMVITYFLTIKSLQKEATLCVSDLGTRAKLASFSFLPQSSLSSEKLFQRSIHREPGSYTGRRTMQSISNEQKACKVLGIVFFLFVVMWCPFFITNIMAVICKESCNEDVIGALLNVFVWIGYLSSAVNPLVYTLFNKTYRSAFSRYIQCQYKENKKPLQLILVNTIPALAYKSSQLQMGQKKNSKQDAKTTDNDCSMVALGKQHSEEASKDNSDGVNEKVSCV
Compound,melting point [°C],Ki [1] [nM],Ki [2] [nM],Ki [3] [nM],D2 Ki [3]
"O=C(C[C@@H](O)C(F)(F)F)N[C@H]1CC[C@H](CCN2CCN(c3nccc4c3OCC4)CC2)CC1 [Example 47, trans-(R)—N-(4-{2-[4-(2,3-Dihydro-furo[2,3-c]pyridin-7-yl)-piperazin-1-yl]-ethyl}-cyclohexyl)-4,4,4-trifluoro-3-hydroxy-butyramide]",214.5,89,15,943,–
"CC(C)C(=O)N[C@H]1CC[C@H](CCN2CCN(c3nccc4c3OCC4)CC2)CC1 [Example 37, trans-N-(4-{2-[4-(2,3-Dihydro-furo[2,3-c]pyridin-7-yl)-piperazin-1-yl]-ethyl}-cyclohexyl)-isobutyramide]",203.5,34.8,7.25,265,–
"O=C(CC1CCOCC1)N[C@H]1CC[C@H](CCN2CCN(c3nccc4c3OCC4)CC2)CC1 [Example 8, trans-N-(4-{2-[4-(2,3-Dihydro-furo[2,3-c]pyridin-7-yl)-piperazin-1-yl]-ethyl}-cyclohexyl)-2-(tetrahydro-pyran-4-yl)-acetamide]",222.5,48.9,7.49,1480,–
"O=C(N[C@H]1CC[C@H](CCN2CCN(c3nccc4c3OCC4)CC2)CC1)C1CC1 [Example 36, trans-Cyclopropanecarboxylic acid (4-{2-[4-(2,3-dihydro-furo[2,3-c]pyridin-7-yl)-piperazin-1-yl]-ethyl}-cyclohexyl)-amide]",193,32.3,7.49,102,–
"CC(C)(C)CC(=O)N[C@H]1CC[C@H](CCN2CCN(c3nccc4c3OCC4)CC2)CC1 [Example 89, trans-N-(4-{2-[4-(2,3-Dihydro-furo[2,3-c]pyridin-7-yl)-piperazin-1-yl]-ethyl}-cyclohexyl)-3,3-dimethyl-butyramide]",193,58.8,15.1,435,–
"O=C(CC1(O)CCC1)N[C@H]1CC[C@H](CCN2CCN(c3nccc4c3OCC4)CC2)CC1 [Example 102, trans-N-(4-{2-[4-(2,3-Dihydro-furo[2,3-c]pyridin-7-yl)-piperazin-1-yl]-ethyl}-cyclohexyl)-2-(1-hydroxy-cyclobutyl)-acetamide]",155,50.6,11.8,478,–
"O=C(CO)N[C@H]1CC[C@H](CCN2CCN(c3nccc4c3OCC4)CC2)CC1 [Example 28, trans-N-(4-{2-[4-(2,3-Dihydro-furo[2,3-c]pyridin-7-yl)-piperazin-1-yl]-ethyl}-cyclohexyl)-2-hydroxy-acetamide]",246,31.3,7.76,425,–
"O=S(=O)(N[C@H]1CC[C@H](CCN2CCN(c3nccc4c3OCC4)CC2)CC1)c1ccc(F)cc1 [Example 96, trans-N-(4-{2-[4-(2,3-Dihydro-furo[2,3-c]pyridin-7-yl)-piperazin-1-yl]-ethyl}-cyclohexyl)-4-fluoro-benzenesulfonamide]",148,204,5.27,200,–
"CCC(=O)N[C@H]1CC[C@H](CCN2CCN(c3nccc4c3OCC4)CC2)CC1 [Example 18, trans-N-(4-{2-[4-(2,3-Dihydro-furo[2,3-c]pyridin-7-yl)-piperazin-1-yl]-ethyl}-cyclohexyl)-propionamide]",196,43.3,3.94,648,–
"O=C(N[C@H]1CC[C@H](CCN2CCN(c3nccc4c3OCC4)CC2)CC1)C1(O)CC1 [Example 44, 1-Hydroxy-cyclopropanecarboxylic acid trans-(4-{2-[4-(2,3-dihydro-furo[2,3-c]pyridin-7-yl)-piperazin-1-yl]-ethyl}-cyclohexyl)-amide]",248.5,9.91,16.8,793,–
"CS(=O)(=O)N[C@H]1CC[C@H](CCN2CCN(c3nccc4c3OCC4)CC2)CC1 [Example 26, trans-N-(4-{2-[4-(2,3-Dihydro-furo[2,3-c]pyridin-7-yl)-piperazin-1-yl]-ethyl}-cyclohexyl)-methanesulfonamide]",220,70.8,13.9,481,–
"O=C(CC1COC1)N[C@H]1CC[C@H](CCN2CCN(c3nccc4c3OCC4)CC2)CC1 [Example 98, trans-N-(4-{2-[4-(2,3-Dihydro-furo[2,3-c]pyridin-7-yl)-piperazin-1-yl]-ethyl}-cyclohexyl)-2-oxetan-3-yl-acetamide]",175,31.6,4.88,420,–
"O=C(CCO)N[C@H]1CC[C@H](CCN2CCN(c3nccc4c3OCC4)CC2)CC1 [Example 49, trans-N-(4-{2-[4-(2,3-Dihydro-furo[2,3-c]pyridin-7-yl)-piperazin-1-yl]-ethyl}-cyclohexyl)-3-hydroxy-propionamide]",257,82.3,10.4,723,–
"C[C@]1(O)CC[C@@H](C(=O)N[C@H]2CC[C@H](CCN3CCN(c4nccc5c4OCC5)CC3)CC2)CC1 [Example 93, cis-4-Hydroxy-4-methyl-cyclohexanecarboxylic acid trans-(4-{2-[4-(2,3-dihydro-furo[2,3-c]pyridin-7-yl)-piperazin-1-yl]-ethyl}-cyclohexyl)-amide]",219,30.7,38.4,832,–
"Cc1nc(-c2cccc(C(=O)N[C@H]3CC[C@H](CCN4CCN(c5nccc6c5OCC6)CC4)CC3)c2)no1 [Example 64, trans-N-(4-{2-[4-(2,3-Dihydro-furo[2,3-c]pyridin-7-yl)-piperazin-1-yl]-ethyl}-cyclohexyl)-3-(5-methyl-[1,2,4]oxadiazol-3-yl)-benzamide]",227.5,54.4,4.43,–,inactive
"O=C(N[C@H]1CC[C@H](CCN2CCN(c3nccc4c3OCC4)CC2)CC1)c1ccc(-n2cccn2)cc1 [Example 65, trans-N-(4-{2-[4-(2,3-Dihydro-furo[2,3-c]pyridin-7-yl)-piperazin-1-yl]-ethyl}-cyclohexyl)-4-pyrazol-1-yl-benzamide]",225.5,29.2,11.1,502,–
"O=C(N[C@H]1CC[C@H](CCN2CCN(c3nccc4c3OCC4)CC2)CC1)C1(O)CCC1 [Example 79, 1-Hydroxy-cyclobutanecarboxylic acid trans-(4-{2-[4-(2,3-dihydro-furo[2,3-c]pyridin-7-yl)-piperazin-1-yl]-ethyl}-cyclohexyl)-amide]",250,15.7,37.5,623,–
"O=C(N[C@H]1CC[C@H](CCN2CCN(c3nccc4c3OCC4)CC2)CC1)c1ccc(N2CCS(=O)(=O)CC2)cc1 [Example 74, trans-N-(4-{2-[4-(2,3-Dihydro-furo[2,3-c]pyridin-7-yl)-piperazin-1-yl]-ethyl}-cyclohexyl)-4-(1,1-dioxo-1λ6-thiomorpholin-4-yl)-benzamide]",260.5,23.1,9.47,145,–
